According to PubChem BioAssay AID248 (DTP/NCI, 2004):
Several values for one entry are separate records, joined by “and”; a condition that tells them apart may be missing. Identical values can stand only once. Inconclusive results and toxic doses are left out. Rule as the data show it: active = T/C of 150% or more; inactive = T/C below 125%.

Tested on: L1210 leukemia ip in BDF1 mice, survival T/C
Experiment: NCI In Vivo Anticancer Drug Screen. Data for tumor model L1210 Leukemia (intraperitoneal) in B6D2F1 (BDF1) mice
Conditions: endpoint: mean survival time, higher = longer survival
Summary of the method: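 Ratio derived from survival: compound-dosed mice over vehicle-dosed mice, all bearing a transplantable tumor.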

[1] = dose: 100.0 mg/kg/injection, schedule: Q04DX003 (ip), vehicle: saline with Tween-80
[2] = dose: 200.0 mg/kg/injection, schedule: Q04DX003 (ip), vehicle: saline with Tween-80
[3] = dose: 400.0 mg/kg/injection, schedule: Q04DX003 (ip), vehicle: saline with Tween-80

Measured: T/C

CCN(CC)CCOc1cccc(OC)c1
inactive: dose: 25.0 mg/kg/injection, schedule: Q01DX009 (ip), vehicle: saline 95 % of control | dose: 50.0 mg/kg/injection, schedule: Q01DX009 (ip), vehicle: saline 96 % of control | dose: 75.0 mg/kg/injection, schedule: Q01DX009 (ip), vehicle: saline 95 % of control and 108 % of control

CCOC(=O)N/N=C(\C)c1ccc(OC)cc1
inactive: dose: 100.0 mg/kg/injection, schedule: Q01DX009 (ip), vehicle: Klucel (hydroxypropylcellulose) (HPC) 98 % of control | dose: 200.0 mg/kg/injection, schedule: Q01DX009 (ip), vehicle: Klucel (hydroxypropylcellulose) (HPC) 112 % of control

Cc1ccc(NCc2nc(N)nc(Nc3ccc(C)cc3)n2)cc1
inactive: [1] 93 % of control | [2] 101 % of control | [3] 97 % of control

CCCCB1OCCCO1
inactive: dose: 100.0 mg/kg/injection, schedule: Q01DX001 (ip), vehicle: Klucel (hydroxypropylcellulose) (HPC) 98 % of control | dose: 200.0 mg/kg/injection, schedule: Q01DX001 (ip), vehicle: Klucel (hydroxypropylcellulose) (HPC) 88 % of control | dose: 400.0 mg/kg/injection, schedule: Q01DX001 (ip), vehicle: Klucel (hydroxypropylcellulose) (HPC) 92 % of control

CCOc1ccc(N=Cc2ccccc2OC(=O)c2ccccc2)cc1
inactive: dose: 100.0 mg/kg/injection, schedule: Q04DX002 (ip), vehicle: Klucel (hydroxypropylcellulose) (HPC) 105 % of control | dose: 200.0 mg/kg/injection, schedule: Q04DX002 (ip), vehicle: Klucel (hydroxypropylcellulose) (HPC) 101 % of control | dose: 400.0 mg/kg/injection, schedule: Q04DX002 (ip), vehicle: Klucel (hydroxypropylcellulose) (HPC) 97 % of control

CC12CCC(=O)C=C1CCC1C2CCC2(C)C1CCC2(O)C#CCN(CCCl)CCCl (configuration not stated)
inactive: dose: 100.0 mg/kg/injection, schedule: Q01DX001 (sc), vehicle: steriod suspending solution 96 % of control | dose: 200.0 mg/kg/injection, schedule: Q01DX001 (sc), vehicle: steriod suspending solution 104 % of control | dose: 400.0 mg/kg/injection, schedule: Q01DX001 (sc), vehicle: steriod suspending solution 98 % of control

C/C(=N/NC(N)=S)c1ccc(F)cc1
inactive: dose: 9.38 mg/kg/injection, schedule: Q01DX009 (ip), vehicle: Klucel (hydroxypropylcellulose) (HPC) 95 % of control | dose: 18.75 mg/kg/injection, schedule: Q01DX009 (ip), vehicle: Klucel (hydroxypropylcellulose) (HPC) 92 % of control

CN(N=O)C(=O)NCCSc1nc2ncncc2[nH]1
inactive: dose: 31.0 mg/kg/injection, schedule: Q01DX001 (ip), vehicle: carboxymethylcellulose (CMC) 87 % of control | dose: 62.0 mg/kg/injection, schedule: Q01DX001 (ip), vehicle: carboxymethylcellulose (CMC) 103 % of control | dose: 93.0 mg/kg/injection, schedule: Q01DX001 (ip), vehicle: carboxymethylcellulose (CMC) 106 % of control | dose: 187.0 mg/kg/injection, schedule: Q01DX001 (ip), vehicle: carboxymethylcellulose (CMC) 103 % of control | dose: 250.0 mg/kg/injection, schedule: Q01DX001 (ip), vehicle: carboxymethylcellulose (CMC) 103 % of control | dose: 500.0 mg/kg/injection, schedule: Q01DX001 (ip), vehicle: carboxymethylcellulose (CMC) 115 % of control | dose: 750.0 mg/kg/injection, schedule: Q01DX001 (ip), vehicle: carboxymethylcellulose (CMC) 123 % of control | dose: 1000.0 mg/kg/injection, schedule: Q01DX001 (ip), vehicle: carboxymethylcellulose (CMC) 117 % of control

CC(C)(CC(=O)O)NC(=O)CN
inactive: dose: 100.0 mg/kg/injection, schedule: Q04DX002 (ip), vehicle: saline 94 % of control | dose: 200.0 mg/kg/injection, schedule: Q04DX002 (ip), vehicle: saline 91 % of control | dose: 400.0 mg/kg/injection, schedule: Q04DX002 (ip), vehicle: saline 97 % of control

CC(=O)Oc1c2ccccc2c(OC(C)=O)c2cc(/C=C/C(=O)O)ccc12
inactive: [1] 95 % of control | [2] 90 % of control | [3] 88 % of control

Cc1ccc(C)c(C(=O)c2ccccc2C(=O)O)c1
inactive: dose: 10.0 mg/kg/injection, schedule: Q01DX009 (ip), vehicle: saline 101 % of control | dose: 100.0 mg/kg/injection, schedule: Q01DX009 (ip), vehicle: saline sonified 98 % of control | [1] 90 % of control | dose: 200.0 mg/kg/injection, schedule: Q01DX009 (ip), vehicle: saline sonified 94 % of control | dose: 200.0 mg/kg/injection, schedule: Q01DX009 (ip), vehicle: saline 103 % of control | [2] 94 % of control | dose: 400.0 mg/kg/injection, schedule: Q01DX009 (ip), vehicle: saline sonified 105 % of control | dose: 400.0 mg/kg/injection, schedule: Q01DX009 (ip), vehicle: saline 98 % of control | [3] 90 % of control

Cc1ccc(NC(=O)/C=C/C(=O)Nc2ccc(C)cc2)cc1
inactive: dose: 100.0 mg/kg/injection, schedule: Q04DX003 (ip), vehicle: saline 103 % of control | dose: 200.0 mg/kg/injection, schedule: Q04DX003 (ip), vehicle: saline 100 % of control | dose: 400.0 mg/kg/injection, schedule: Q04DX003 (ip), vehicle: saline 103 % of control

Cc1nc2ccccc2c(Br)c1Br
inactive: dose: 100.0 mg/kg/injection, schedule: Q01DX001 (ip), vehicle: saline 91 % of control | dose: 200.0 mg/kg/injection, schedule: Q01DX001 (ip), vehicle: saline 94 % of control | dose: 400.0 mg/kg/injection, schedule: Q01DX001 (ip), vehicle: saline 96 % of control

C/C=C/C[P+](c1ccccc1)(c1ccccc1)c1ccccc1
inactive: dose: 3.13 mg/kg/injection, schedule: Q01DX009 (ip), vehicle: saline 98 % of control | dose: 6.25 mg/kg/injection, schedule: Q01DX009 (ip), vehicle: saline 110 % of control | dose: 12.5 mg/kg/injection, schedule: Q01DX009 (ip), vehicle: saline with Tween-80 106 % of control | dose: 12.5 mg/kg/injection, schedule: Q01DX009 (ip), vehicle: saline 98 % of control | dose: 15.0 mg/kg/injection, schedule: Q01DX001 (ip), vehicle: saline 101 % of control | dose: 30.0 mg/kg/injection, schedule: Q01DX001 (ip), vehicle: saline 114 % of control

NC(=NC(=O)c1ccccc1)N[N+](=O)[O-]
inactive: dose: 100.0 mg/kg/injection, schedule: Q04DX002 (ip), vehicle: gum acacia 104 % of control | dose: 200.0 mg/kg/injection, schedule: Q04DX002 (ip), vehicle: gum acacia 107 % of control | dose: 400.0 mg/kg/injection, schedule: Q04DX002 (ip), vehicle: gum acacia 104 % of control

Sc1cccc2c(S)cccc12
inactive: dose: 50.0 mg/kg/injection, schedule: Q01DX001 (ip), vehicle: carboxymethylcellulose (CMC) 100 % of control | dose: 100.0 mg/kg/injection, schedule: Q01DX001 (ip), vehicle: carboxymethylcellulose (CMC) 97 % of control | dose: 200.0 mg/kg/injection, schedule: Q01DX001 (ip), vehicle: carboxymethylcellulose (CMC) 103 % of control | dose: 400.0 mg/kg/injection, schedule: Q01DX001 (ip), vehicle: carboxymethylcellulose (CMC) 100 % of control

CCCCNC(=O)C1CC2c3cc(Br)cc4[nH]c(Br)c(c34)CC2N(C)C1 (configuration not stated)
inactive: dose: 25.0 mg/kg/injection, schedule: Q04DX003 (ip), vehicle: Klucel (hydroxypropylcellulose) (HPC) 96 % of control | dose: 100.0 mg/kg/injection, schedule: Q04DX003 (ip), vehicle: Klucel (hydroxypropylcellulose) (HPC) 91 % of control | dose: 400.0 mg/kg/injection, schedule: Q04DX003 (ip), vehicle: Klucel (hydroxypropylcellulose) (HPC) 89 % of control

O=C(Cn1ccc(O)cc1=O)N1CCOCC1
inactive: dose: 100.0 mg/kg/injection, schedule: Q01DX009 (ip), vehicle: water 105 % of control | dose: 100.0 mg/kg/injection, schedule: Q04DX003 (ip), vehicle: water 101 % of control | dose: 200.0 mg/kg/injection, schedule: Q01DX009 (ip), vehicle: water 100 % of control | dose: 200.0 mg/kg/injection, schedule: Q04DX003 (ip), vehicle: water 106 % of control | dose: 400.0 mg/kg/injection, schedule: Q01DX009 (ip), vehicle: water 103 % of control | dose: 400.0 mg/kg/injection, schedule: Q04DX003 (ip), vehicle: water 94 % of control

ON=C1C2CC3CC(C2)CC1C3
inactive: dose: 75.0 mg/kg/injection, schedule: Q01DX001 (ip), vehicle: other 96 % of control | dose: 150.0 mg/kg/injection, schedule: Q01DX001 (ip), vehicle: other 94 % of control | dose: 300.0 mg/kg/injection, schedule: Q01DX001 (ip), vehicle: other 93 % of control

O=C(NCCCCC(NC(=O)c1ccccc1)C(=O)NCCCCCCNCCCCCCNC(=O)C(CCCCNC(=O)c1ccccc1)NC(=O)c1ccccc1)c1ccccc1 (configuration not stated)
inactive: dose: 10.0 mg/kg/injection, schedule: Q01DX Z (ip), vehicle: saline 96 % of control | dose: 30.0 mg/kg/injection, schedule: Q01DX Z (ip), vehicle: saline 102 % of control | dose: 100.0 mg/kg/injection, schedule: Q01DX Z (ip), vehicle: saline 100 % of control | dose: 300.0 mg/kg/injection, schedule: Q01DX Z (ip), vehicle: saline 100 % of control
